In ChEMBL document CHEMBL3102782, “Current status of the research and development of diacylglycerol O-acyltransferase 1 (DGAT1) inhibitors” (J Med Chem, 2013):

How the values were obtained:
Mus musculus = assay: Toxicity in DIO C57BL6 mouse assessed as body weight loss at 30 mg/kg, po administered qd from day 1 to 7 and bid from day 8 to 14 followed by single dose on day 15 morning; format: organism-based; parameters: dose 30 mg/kg, route oral; details: in vivo
Homo sapiens [1] = organism: Homo sapiens; assay: Reduction of triglyceride AUC in human at 60 mg; format: functional; parameters: scale not given: the % may be the effect or the level left
Homo sapiens [2] = organism: Homo sapiens; assay: Reduction of triglyceride AUC in human receiving 60% fat meal at >5 mg; format: functional; parameters: scale not given: the % may be the effect or the level left
Homo sapiens [3] = organism: Homo sapiens; assay: Reduction of triglyceride AUC in human; format: functional, organism-based
Homo sapiens [4] = organism: Homo sapiens; assay: Reduction of triglyceride AUC in human relative to baseline; format: functional; parameters: scale not given: the % may be the effect or the level left
[5] = Tmax in human; format: ADME, organism-based; details: in vivo
Homo sapiens [6] = assay: Reduction in triglycerides in familial chylomicronemia syndrome patients measured after 3 weeks of compound dosing; format: functional; parameters: scale not given: the % may be the effect or the level left

## CC1(C)Oc2ncnc(N)c2N=C1c1ccc([C@H]2CC[C@H](CC(=O)O)CC2)cc1
Mus musculus
  Activity: 6.7%

## Cc1nc(C)c(-c2ccc(C3CCC(CC(=O)O)CC3)cc2)nc1C(N)=O (configuration not stated) [AZD-7687]
Homo sapiens [1]
  Activity: 50%
Homo sapiens [2]
  Activity: >75%
Homo sapiens [3]
  EC50: 440 nM
Homo sapiens [4]
  Activity: 84%
[5]
  Tmax: 1 h

## O=C(O)C[C@H]1CC[C@H](c2ccc(-c3ccc(Nc4ccc(C(F)(F)F)nc4)cn3)cc2)CC1 [PRADIGASTAT]
Homo sapiens [6]
  Activity: 38.4%
